The source of these data is ChEMBL document CHEMBL1201862, “PubChem BioAssay data set” (2004).

The target of experiment [1] is T1, Endoribonuclease toxin MazF (Escherichia coli K-12, UniProt P0AE70). Description: activation of MazEF endoribonuclease cleavage – biochemical, fluorescence, single-stranded RNA substrate, uHTS hits, dose response (AID 588481). It counts as functional.
For experiment [2], the target named is T1, Endoribonuclease toxin MazF. Description: substrate-only fluorescence increase artefacts – biochemical, single-stranded RNase substrate, counter-screen for MazEF activator project, dose response (AID 588502). It counts as functional.
Experiment [3] deals with T2, Short transient receptor potential channel 4 (Mus musculus, UniProt Q9QUQ5).
T2 sequence (Q9QUQ5 whole entry): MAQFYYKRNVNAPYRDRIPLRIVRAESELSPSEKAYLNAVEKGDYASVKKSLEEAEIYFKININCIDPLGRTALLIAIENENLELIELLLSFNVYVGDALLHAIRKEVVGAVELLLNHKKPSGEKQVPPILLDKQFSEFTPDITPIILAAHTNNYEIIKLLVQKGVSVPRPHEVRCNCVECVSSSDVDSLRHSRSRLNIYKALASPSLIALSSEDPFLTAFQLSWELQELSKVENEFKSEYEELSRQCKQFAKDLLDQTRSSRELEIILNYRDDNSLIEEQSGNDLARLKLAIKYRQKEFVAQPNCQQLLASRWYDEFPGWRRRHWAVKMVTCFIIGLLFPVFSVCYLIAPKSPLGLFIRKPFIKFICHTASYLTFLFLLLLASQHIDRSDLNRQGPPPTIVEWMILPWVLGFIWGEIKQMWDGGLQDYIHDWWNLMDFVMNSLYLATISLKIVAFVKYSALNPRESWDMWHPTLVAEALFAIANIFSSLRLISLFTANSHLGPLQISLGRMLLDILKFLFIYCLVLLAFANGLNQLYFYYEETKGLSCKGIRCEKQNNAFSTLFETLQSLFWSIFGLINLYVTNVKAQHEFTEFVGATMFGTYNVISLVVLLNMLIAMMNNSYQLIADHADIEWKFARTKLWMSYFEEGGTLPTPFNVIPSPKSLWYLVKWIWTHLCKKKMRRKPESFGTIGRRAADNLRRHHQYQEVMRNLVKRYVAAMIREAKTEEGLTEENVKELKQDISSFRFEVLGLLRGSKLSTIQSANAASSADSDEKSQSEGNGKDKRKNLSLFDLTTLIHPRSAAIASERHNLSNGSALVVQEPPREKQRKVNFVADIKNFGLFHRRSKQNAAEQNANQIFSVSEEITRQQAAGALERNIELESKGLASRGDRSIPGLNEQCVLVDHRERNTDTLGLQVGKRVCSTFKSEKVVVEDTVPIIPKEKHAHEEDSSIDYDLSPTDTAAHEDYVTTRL
Description: SAR Analysis for the identification of selective inhibits of the transient receptor potential cation channel C4 (TRPC4): Automated Electrophysiology_2. [Related pubchem assays (depositor defined):AID2256]. It counts as functional.

In experiment [4] the target is T2, Short transient receptor potential channel 4. Kind of experiment: potency of mouse TRPC4 calcium flux blockers – cell-based, HEK293 TRPC4/mu-opioid, DAMGO stimulus, Fluo-4, dose response (AID 492994). Format: functional.
For experiment [5], the target named is Potassium voltage-gated channel subfamily KQT member 2 (Rattus norvegicus, UniProt O88943). Description: rat KCNQ2 current potentiators – automated patch clamp, KCNQ2-CHO cells, SAR follow-up (AID 493113). Format: functional.
Sequence of Potassium voltage-gated channel subfamily KQT member 2 (O88943 whole entry): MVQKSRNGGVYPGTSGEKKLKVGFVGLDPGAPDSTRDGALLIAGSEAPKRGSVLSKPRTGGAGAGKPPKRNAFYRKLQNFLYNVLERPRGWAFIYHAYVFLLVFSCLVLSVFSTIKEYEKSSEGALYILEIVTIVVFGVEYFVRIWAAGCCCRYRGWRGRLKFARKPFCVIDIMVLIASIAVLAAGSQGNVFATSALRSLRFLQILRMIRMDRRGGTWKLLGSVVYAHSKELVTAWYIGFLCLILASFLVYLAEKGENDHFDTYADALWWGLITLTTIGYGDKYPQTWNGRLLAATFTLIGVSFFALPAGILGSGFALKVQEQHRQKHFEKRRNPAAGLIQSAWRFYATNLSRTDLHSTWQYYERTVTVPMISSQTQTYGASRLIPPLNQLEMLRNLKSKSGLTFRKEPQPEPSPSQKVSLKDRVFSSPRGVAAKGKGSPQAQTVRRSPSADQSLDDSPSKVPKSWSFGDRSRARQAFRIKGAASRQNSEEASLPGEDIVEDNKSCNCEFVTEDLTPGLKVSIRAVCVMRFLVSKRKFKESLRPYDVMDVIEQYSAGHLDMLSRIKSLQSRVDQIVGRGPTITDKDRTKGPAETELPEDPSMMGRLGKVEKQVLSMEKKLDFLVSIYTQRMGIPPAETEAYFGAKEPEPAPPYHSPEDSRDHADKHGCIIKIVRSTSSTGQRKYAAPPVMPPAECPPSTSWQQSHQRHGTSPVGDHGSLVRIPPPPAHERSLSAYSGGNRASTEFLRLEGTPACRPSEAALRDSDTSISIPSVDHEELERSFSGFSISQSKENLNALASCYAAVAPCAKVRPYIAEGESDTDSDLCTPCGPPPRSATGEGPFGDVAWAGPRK
The target in the next experiment is Large T antigen (Simian virus 40, UniProt P03070). It counts as functional, Betapolyomavirus macacae.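 Further: Confirmatory-stage PubChem screen for compounds that inhibit SV40 T antigen.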
Sequence of Large T antigen (P03070 whole entry): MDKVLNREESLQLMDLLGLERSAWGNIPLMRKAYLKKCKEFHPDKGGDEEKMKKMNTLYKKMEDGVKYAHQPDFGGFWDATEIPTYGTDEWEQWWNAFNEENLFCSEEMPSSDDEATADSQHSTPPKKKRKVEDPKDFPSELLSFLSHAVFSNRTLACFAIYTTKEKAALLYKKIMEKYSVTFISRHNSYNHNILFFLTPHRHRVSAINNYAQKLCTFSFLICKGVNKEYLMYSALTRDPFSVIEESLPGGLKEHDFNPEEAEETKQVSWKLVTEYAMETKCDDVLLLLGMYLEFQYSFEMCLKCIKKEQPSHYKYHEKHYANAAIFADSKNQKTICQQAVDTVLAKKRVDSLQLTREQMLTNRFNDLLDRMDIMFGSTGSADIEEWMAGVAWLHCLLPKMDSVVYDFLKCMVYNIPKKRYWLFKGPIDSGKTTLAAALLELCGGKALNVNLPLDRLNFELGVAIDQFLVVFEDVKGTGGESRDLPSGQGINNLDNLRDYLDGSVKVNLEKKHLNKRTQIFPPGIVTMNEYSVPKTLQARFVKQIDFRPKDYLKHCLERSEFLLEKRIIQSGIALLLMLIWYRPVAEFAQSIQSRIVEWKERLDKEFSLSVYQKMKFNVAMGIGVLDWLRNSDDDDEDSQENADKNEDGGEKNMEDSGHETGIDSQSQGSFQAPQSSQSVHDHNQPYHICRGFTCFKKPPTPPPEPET
Experiment [6] deals with Intestinal-type alkaline phosphatase (Mus musculus, UniProt P24822). Description: PubChem AID 488785. It counts as functional.
Sequence of Intestinal-type alkaline phosphatase (Mus musculus, UniProt P24822) (P24822 whole entry): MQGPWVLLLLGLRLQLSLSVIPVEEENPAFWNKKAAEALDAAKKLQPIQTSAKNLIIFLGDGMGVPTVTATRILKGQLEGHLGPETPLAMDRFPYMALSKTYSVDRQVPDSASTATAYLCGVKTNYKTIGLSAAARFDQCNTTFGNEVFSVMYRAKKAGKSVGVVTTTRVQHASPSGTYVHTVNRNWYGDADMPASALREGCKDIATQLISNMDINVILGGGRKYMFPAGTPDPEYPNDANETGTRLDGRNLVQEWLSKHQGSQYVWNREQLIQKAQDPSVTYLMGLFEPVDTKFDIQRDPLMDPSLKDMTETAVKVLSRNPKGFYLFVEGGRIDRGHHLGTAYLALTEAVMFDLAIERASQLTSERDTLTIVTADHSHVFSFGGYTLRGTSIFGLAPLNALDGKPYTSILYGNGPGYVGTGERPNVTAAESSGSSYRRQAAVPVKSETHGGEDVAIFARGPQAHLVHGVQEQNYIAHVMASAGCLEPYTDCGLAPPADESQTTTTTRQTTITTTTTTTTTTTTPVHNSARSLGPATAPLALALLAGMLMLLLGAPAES
For experiment [7], the target named is Alkaline phosphatase, tissue-nonspecific isozyme (Homo sapiens, UniProt P05186). Description: TNAP enzyme inhibition by screening hits, dose response, selectivity assay for mouse IAP inhibitor project, biochemical, human TNAP, uHTS hits (AID 488906). It counts as functional.
Sequence of Alkaline phosphatase, tissue-nonspecific isozyme (P05186 whole entry): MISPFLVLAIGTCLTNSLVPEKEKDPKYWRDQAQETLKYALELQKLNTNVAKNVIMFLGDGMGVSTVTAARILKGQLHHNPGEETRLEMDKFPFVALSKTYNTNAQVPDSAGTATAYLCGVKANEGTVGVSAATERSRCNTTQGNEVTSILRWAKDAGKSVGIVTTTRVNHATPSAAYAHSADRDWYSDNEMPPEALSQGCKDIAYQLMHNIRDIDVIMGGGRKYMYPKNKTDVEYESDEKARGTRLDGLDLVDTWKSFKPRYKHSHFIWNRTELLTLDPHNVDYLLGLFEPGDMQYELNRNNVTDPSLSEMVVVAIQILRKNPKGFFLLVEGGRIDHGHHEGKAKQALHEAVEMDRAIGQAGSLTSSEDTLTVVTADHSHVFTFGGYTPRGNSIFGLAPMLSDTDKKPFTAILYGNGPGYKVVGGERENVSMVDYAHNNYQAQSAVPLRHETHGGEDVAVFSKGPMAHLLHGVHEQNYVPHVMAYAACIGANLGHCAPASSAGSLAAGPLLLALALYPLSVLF
Experiment [8] addresses Intestinal-type alkaline phosphatase (Homo sapiens, UniProt P09923). Description: inhibition of human intestinal alkaline phosphatase – biochemical, dose response (AID 488876). It counts as functional.

Activity calls are given as the source filed them. Bounds are passed on as bounds.

T1 sequence (P0AE70 whole entry): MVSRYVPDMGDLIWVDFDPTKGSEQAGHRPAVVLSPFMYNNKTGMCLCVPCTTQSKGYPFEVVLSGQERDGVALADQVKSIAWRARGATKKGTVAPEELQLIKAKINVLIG
Sequence of Intestinal-type alkaline phosphatase (Homo sapiens, UniProt P09923) (P09923 whole entry): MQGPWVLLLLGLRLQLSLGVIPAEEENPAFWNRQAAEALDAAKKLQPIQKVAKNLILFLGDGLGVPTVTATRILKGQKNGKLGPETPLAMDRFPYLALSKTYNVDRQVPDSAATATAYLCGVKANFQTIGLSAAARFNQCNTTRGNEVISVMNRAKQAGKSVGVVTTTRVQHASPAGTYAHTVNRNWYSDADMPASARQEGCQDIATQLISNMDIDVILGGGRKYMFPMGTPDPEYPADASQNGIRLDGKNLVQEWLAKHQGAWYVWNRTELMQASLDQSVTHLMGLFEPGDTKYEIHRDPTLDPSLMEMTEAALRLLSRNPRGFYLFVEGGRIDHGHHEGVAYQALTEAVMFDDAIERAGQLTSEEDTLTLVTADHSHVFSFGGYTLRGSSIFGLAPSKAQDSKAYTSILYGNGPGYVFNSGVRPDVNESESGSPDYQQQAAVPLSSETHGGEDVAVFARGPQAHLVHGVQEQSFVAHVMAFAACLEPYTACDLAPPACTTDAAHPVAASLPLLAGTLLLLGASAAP

`Cc1c(C=NNC(=O)c2ccc(Br)cc2)c2ccccn2c1C(=O)c1ccncc1`: the EC50 in [1] and in experiment [2] was > 99 µM (inactive) each time.

Take `CCc1ccc2nc(N3CCCCCC3)cc(C)c2c1`: the figures for the IC50 in experiment [3] and in experiment [4] were 3.3 µM (active) and 7.37 µM (active), respectively.

`Nc1cccc(NC(=O)C2CC3CCC2C3)n1` (centres undefined): the EC50 in experiment [5] was 1.81 µM (active).

As to `O=S(=O)(c1ccc(NC(=S)N/N=C/c2ccc(O)c(O)c2)cc1)N1CCOCC1`, the IC50 on Large T antigen was 38.4 µM (active); in [6] it was 2.84 µM (active); in experiment [7] it was 15.1 µM (active); in experiment [8], < 0.195 µM (active).
